This is an account of results in US12692233B2, “Anthelmintic compounds comprising a pyridine structure” (Intervet Inc., priority 2020, dated 2026).

For experiment [1], the target named is T1, human Maxi K channel (BK channel) (Homo sapiens, UniProt Q12791).
T1 construct: expressed in transfected cells; host or cells: CHO K1
Description: Agonistic activity at the human Maxi K channel (BK channel), FLIPR membrane potential in CHO K1 cells. Format: cell-based. The note with it: CHO K1 cells stably transfected with KCNMA1 and beta1 (KCNMB1) subunits, membrane potential dye. From the text:
A CHO K1 cell line was stably transfected with the KCNMA1 (KCa1.1, U11058) and beta1 (KCNMB1) subunits of the human Maxi K channel (Ponte et al, Molecular Pharmacology 2012, 81(4), 567-577).
The complete measurement takes 150 s.

The subject of experiment [2] is Oesophagostumum dentatum. Nature of the experiment: In vitro assay Oesophagostumum dentatum larval stage 3. The note with it: larval stage 3, 20 larvae per well, microscopic examination; read-out: MEC (minimum effective concentration) against Oesophagostumum dentatum L3. The class given is cell-based. From the text: (§1) […] galli (intestinal roundworm of chicken), larval stage 3 (“L3”); and Oesophagostumum dentatum (nodular worm of swine), larval stages 3 and 4 (respectively “L3” and “L4”) where suspended in a nutrient medium and distributed to 96 well plates with 20 larvae per well. The wells were spiked DMSO solutions of the compounds with declining concentration.

Another experiment deals with C. elegans Slo-1a (Caenorhabditis elegans, UniProt Q95V25). Description: Agonistic activity at C. elegans Slo-1a, FLIPR membrane potential in CHO K1 cells. The conditions noted are these: EC50 agonistic activity at C. elegans Slo-1a, CHO K1 cells stably transfected with slo-1a, membrane potential dye.
A further experiment deals with Dirofilaria immitis. Nature of the experiment: In vitro assay Dirofilaria immitis L1 (microfilaria), motility. The class given is cell-based. The conditions noted are these: 72 h, 3 days incubation, reduction in motility vs DMSO. The procedure: Approximately 500 D. immitis microfilaria were added to a microtiter plate containing a nutrient medium and the test compound in DMSO at varying concentrations. After incubation for 3 days, activity was evaluated as reduction in motility as compared to DMSO as negative control. Compounds were tested in duplicates. Based on the concentration response curves EC50 values were calculated.

Another experiment deals with Ascaridia galli. Description: In vitro assay Ascaridia galli larval stage 3. Format: cell-based. The note with it: larval stage 3, 20 larvae per well, microscopic examination, read-out: MEC (minimum effective concentration) against Ascaridia galli L3.
Source text: as §1

Experiment [3] relates to Oesophagostumum dentatum. Nature of the experiment: In vitro assay Oesophagostumum dentatum larval stage 4. The class given is cell-based. The conditions noted are these: larval stage 4, 20 larvae per well, microscopic examination; read-out: MEC (minimum effective concentration) against Oesophagostumum dentatum L4.
Source text: as §1

In general, EC50 refers to the concentration giving half of the maximal effect. High values mean a less potent agent, low ones a more potent agent.

SMILES strings stand for the structures. Bounds are passed on as bounds.

T1 sequence (Q12791 1-1178 isoform Q12791-5): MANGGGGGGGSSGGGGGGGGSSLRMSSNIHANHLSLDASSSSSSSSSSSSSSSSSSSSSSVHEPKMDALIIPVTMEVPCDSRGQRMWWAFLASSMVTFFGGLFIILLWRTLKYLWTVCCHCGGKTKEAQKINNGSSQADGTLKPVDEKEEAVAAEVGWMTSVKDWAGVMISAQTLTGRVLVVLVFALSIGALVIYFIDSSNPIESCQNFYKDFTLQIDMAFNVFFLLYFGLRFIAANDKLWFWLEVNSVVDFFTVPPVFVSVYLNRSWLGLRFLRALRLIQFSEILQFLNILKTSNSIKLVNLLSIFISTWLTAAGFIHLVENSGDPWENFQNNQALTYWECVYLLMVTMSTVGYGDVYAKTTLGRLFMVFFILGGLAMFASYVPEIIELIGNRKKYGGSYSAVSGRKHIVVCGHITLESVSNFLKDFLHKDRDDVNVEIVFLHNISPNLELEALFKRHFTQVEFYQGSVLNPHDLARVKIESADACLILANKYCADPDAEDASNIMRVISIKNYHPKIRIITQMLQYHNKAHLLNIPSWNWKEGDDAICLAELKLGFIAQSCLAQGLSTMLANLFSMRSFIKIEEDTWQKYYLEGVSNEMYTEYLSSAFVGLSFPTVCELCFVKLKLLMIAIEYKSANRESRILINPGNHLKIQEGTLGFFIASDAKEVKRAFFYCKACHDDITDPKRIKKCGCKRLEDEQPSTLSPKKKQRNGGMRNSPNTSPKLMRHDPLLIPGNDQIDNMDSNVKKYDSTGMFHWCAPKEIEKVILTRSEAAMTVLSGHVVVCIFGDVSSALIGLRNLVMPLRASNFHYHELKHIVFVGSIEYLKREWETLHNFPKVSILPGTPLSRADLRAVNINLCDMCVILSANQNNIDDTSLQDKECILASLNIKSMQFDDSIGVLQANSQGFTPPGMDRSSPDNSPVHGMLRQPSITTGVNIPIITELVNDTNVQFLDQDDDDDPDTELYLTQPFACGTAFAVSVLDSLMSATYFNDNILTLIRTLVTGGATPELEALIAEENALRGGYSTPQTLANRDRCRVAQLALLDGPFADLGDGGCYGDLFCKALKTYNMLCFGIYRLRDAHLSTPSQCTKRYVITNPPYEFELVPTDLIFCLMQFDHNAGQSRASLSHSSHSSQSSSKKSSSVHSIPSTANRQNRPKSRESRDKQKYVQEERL
T1 sequence (Q16558 whole entry partner): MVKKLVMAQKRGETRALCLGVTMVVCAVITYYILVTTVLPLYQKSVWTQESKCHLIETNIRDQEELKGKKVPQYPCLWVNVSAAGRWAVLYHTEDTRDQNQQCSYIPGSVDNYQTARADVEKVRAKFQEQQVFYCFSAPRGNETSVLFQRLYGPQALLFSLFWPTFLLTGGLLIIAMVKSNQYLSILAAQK
Chain of C. elegans Slo-1a (Q95V25 whole entry): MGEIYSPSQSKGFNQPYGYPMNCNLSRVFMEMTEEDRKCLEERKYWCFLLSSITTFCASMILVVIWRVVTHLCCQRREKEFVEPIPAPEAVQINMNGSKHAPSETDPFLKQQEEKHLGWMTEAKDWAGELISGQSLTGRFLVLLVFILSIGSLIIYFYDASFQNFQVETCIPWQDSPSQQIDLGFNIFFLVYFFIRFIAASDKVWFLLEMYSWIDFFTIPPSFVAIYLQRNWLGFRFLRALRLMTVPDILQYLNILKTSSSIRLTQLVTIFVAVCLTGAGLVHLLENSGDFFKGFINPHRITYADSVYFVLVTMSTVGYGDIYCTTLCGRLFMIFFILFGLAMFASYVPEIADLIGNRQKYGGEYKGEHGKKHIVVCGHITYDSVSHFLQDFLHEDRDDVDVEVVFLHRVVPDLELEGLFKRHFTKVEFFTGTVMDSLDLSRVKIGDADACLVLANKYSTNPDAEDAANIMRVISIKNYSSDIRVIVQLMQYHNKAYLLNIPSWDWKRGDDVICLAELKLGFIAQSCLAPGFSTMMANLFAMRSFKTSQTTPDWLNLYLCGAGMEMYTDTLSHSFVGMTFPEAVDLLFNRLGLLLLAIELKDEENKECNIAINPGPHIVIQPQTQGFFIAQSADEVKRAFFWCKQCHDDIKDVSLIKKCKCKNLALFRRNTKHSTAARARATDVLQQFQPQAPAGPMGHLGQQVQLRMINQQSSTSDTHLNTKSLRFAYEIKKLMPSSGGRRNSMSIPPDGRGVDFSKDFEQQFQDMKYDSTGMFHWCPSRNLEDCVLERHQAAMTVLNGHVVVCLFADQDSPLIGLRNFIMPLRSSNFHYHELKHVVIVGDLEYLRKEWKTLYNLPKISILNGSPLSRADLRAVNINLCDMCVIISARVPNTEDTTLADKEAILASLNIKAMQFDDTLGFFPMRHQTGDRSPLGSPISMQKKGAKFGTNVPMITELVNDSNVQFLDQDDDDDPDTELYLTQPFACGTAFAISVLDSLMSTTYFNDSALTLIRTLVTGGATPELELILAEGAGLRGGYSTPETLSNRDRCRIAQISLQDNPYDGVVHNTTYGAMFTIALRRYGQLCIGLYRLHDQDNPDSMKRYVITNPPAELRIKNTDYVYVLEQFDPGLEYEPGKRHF
Description for C. elegans Slo-1a: A CHO K1 cell line stably transfected with the Caenorhabditis elegans slo-1a (accession no Y51A2D.19a) was established. Cells were seeded in microtiter plates (black 384-well MTP, clear bottom) in a concentration of 10,000 cells/well in 25 μl medium and cultured for 20 to 24 hours at 37° C. and 5% CO2. After incubation, 25 μl of FMP-dye Blue-Tyrode's was added to each well and incubated at room temperature for 30 min. Ten minutes after addition of 12.5 μl compound solution, the plates are transferred to the FLIPR for measurement.
For the membrane potential measurements, the plates were placed in the FLIPR Penta (Molecular Devices). The baseline measurement of the fluorescence was stared for 20 sec (Exc. 510-545 nm, Emm. 565-625 nm). Potential channel opening measurement was started by addition of 25 μl of KCl-Tyrode (final assay concentration of the KCl-Tyrode: 70 mM KCl, 2 mM CaCl2, 1 mM MgCl2, 0.8 mM NaH2PO4, 5 mM Glucose, 28 mM Hepes, pH 7.4, including the voltage sensitive dye). The complete measurement takes 150 s.
EC50 values were determined in triplicate utilizing compound dilution series. The data were determined at least in two independent tests. The data were proceeded by using the ActivityBase XE Runner software (IDBS) for curve fitting and calculation of the half-maximal effective concentration.

In experiment [1], `CCOc1cc(Sc2cc(Cl)cc(Cl)c2)ncc1C(=O)N[C@H]1CCCc2ccccc21` [Compound 99] returned an EC50 of more than 30 µM. The minimal effective concentration in the experiment with Oesophagostumum dentatum [2] was not above 50 µM.
For the compound `O=C(N[C@H]1CCCc2ccccc21)c1cnc(Cc2cc(Cl)cc(Cl)c2)cc1N1CCOCC1` [Compound 113], the EC50 in experiment [1] is more than 30 µM; at C. elegans Slo-1a, less than 10 µM. The minimal effective concentration in the experiment on Oesophagostumum dentatum [2] is not above 50 µM.
As for `O=C(N[C@H]1CCc2ccccc21)c1cnc(Sc2cccc(Cl)c2Cl)cc1N1CCOCC1` [Compound 23], the EC50 is less than 10 µM in the experiment on Dirofilaria immitis, more than 30 µM in experiment [1] and less than 1 µM on C. elegans Slo-1a. The minimal effective concentration with Ascaridia galli was not above 50 µM.
For `CN(C)c1cc(Nc2cc(Cl)cc(Cl)c2)ncc1C(=O)N[C@H]1CCOc2ccccc21` [Compound 115], the values for the EC50 (in experiment [1]; on C. elegans Slo-1a) were more than 30 µM and less than 10 µM, respectively. Besides, the minimal effective concentration with Ascaridia galli and in the experiment with Oesophagostumum dentatum [2] was not above 50 µM throughout.
Take `O=C(N[C@H]1CCc2ccccc21)c1cnc(Cc2cc(Cl)cc(Cl)c2)cc1N1CCOCC1` [Compound 117]: the minimal effective concentration in the experiment with Oesophagostumum dentatum [3], in the experiment with Ascaridia galli and in the experiment on Oesophagostumum dentatum [2] was not above 50 µM each time. The compound further returned an EC50 on C. elegans Slo-1a of less than 10 µM.
Regarding `COc1cc(Oc2cccc(Cl)c2Cl)ncc1C(=O)N[C@H]1CCCc2ccccc21` [Compound 96], the results for the EC50 (with Dirofilaria immitis; in experiment [1]) were less than 10 µM and more than 30 µM, respectively. In the experiment on Ascaridia galli, the minimal effective concentration was not above 50 µM.
Consider `CCSc1cc(Sc2cccc(Cl)c2Cl)ncc1C(=O)N[C@H]1CCCc2ccccc21` [Compound 62], for which, in experiment [1], the EC50 is more than 30 µM. For the same compound, the minimal effective concentration with Ascaridia galli and in the experiment with Oesophagostumum dentatum [2] was not above 50 µM in each case.
As for `O=C(Nc1csc2ccccc12)c1cnc(Sc2cccc(Cl)c2Cl)cc1N1CCOCC1` [Compound 48], the minimal effective concentration in the experiment with Oesophagostumum dentatum [3] and with Ascaridia galli was not above 50 µM throughout. In experiment [1], this compound had an EC50 of more than 30 µM.
Turning to `CN(C)c1cc(Oc2cc(Cl)cc(Cl)c2)ncc1C(=O)N[C@@H]1CCOc2ccccc21` [Compound 29], the minimal effective concentration with Oesophagostumum dentatum [3] and with Ascaridia galli was not above 50 µM in each case. Further, the EC50 with Dirofilaria immitis was less than 10 µM; in experiment [1] it was more than 30 µM.
In experiment [1], `COc1cc(Oc2cc(Cl)cc(Cl)c2)ncc1C(=O)N[C@H]1CCOc2ccccc21` [Compound 86] gave an EC50 of more than 30 µM. For the same compound, the minimal effective concentration with Oesophagostumum dentatum [2] was not above 50 µM.
With `COc1cc(Sc2cccc(Cl)c2Cl)ncc1C(=O)N[C@H]1CCCc2ccccc21` [Compound 66], the minimal effective concentration with Oesophagostumum dentatum [3] and in the experiment with Oesophagostumum dentatum [2] was not above 50 µM in each case. The EC50 was more than 30 µM in experiment [1] and less than 10 µM at C. elegans Slo-1a.
In the case of `COc1cc(Sc2cccc(Cl)c2Cl)ncc1C(=O)N[C@H]1CCOc2ccccc21` [Compound 68], the minimal effective concentration with Oesophagostumum dentatum [3] was not above 50 µM. For the same compound, the figures for the EC50 (in experiment [1]; at C. elegans Slo-1a) were more than 30 µM and less than 10 µM, respectively.
On to `COc1cc(Oc2cc(Cl)cc(Cl)c2)ncc1C(=O)N[C@H]1CCCc2ccccc21` [Compound 85], for which the EC50 was less than 10 µM with Dirofilaria immitis and more than 30 µM in experiment [1]. In addition, the minimal effective concentration with Ascaridia galli and in the experiment on Oesophagostumum dentatum [2] was not above 50 µM throughout.
Regarding `CCOc1cc(Oc2cccc(Cl)c2Cl)ncc1C(=O)N[C@H]1CCOc2ccccc21` [Compound 92], the minimal effective concentration in the experiment with Oesophagostumum dentatum [3] is not above 50 µM. Moreover, the EC50 in experiment [1] was more than 30 µM.
With `CN(C)c1cc(S(=O)(=O)c2cc(Cl)cc(Cl)c2)ncc1C(=O)N[C@H]1CCOc2ccccc21` [Compound 100], the figures for the EC50 (in experiment [1]; on C. elegans Slo-1a) were more than 30 µM and less than 10 µM, respectively. Further, the minimal effective concentration in the experiment on Ascaridia galli and with Oesophagostumum dentatum [2] was not above 50 µM in each case.
The compound `CN(C)c1cc(Sc2cc(Cl)cc(Cl)c2)ncc1C(=O)Nc1cccc2ccccc12` [Compound 16] gave an EC50 in experiment [1] of more than 30 µM. Moreover, the minimal effective concentration in the experiment with Ascaridia galli and with Oesophagostumum dentatum [2] was not above 50 µM throughout.
In the case of `CN(C)c1cc([S+]([O-])c2cc(Cl)cc(Cl)c2)ncc1C(=O)N[C@H]1CCCc2ccccc21` (stereo partly drawn) [Compound 101], the figures for the concentration giving a half-maximal response (EC50) (in the experiment with Dirofilaria immitis; in experiment [1]) were less than 10 µM and more than 30 µM, respectively. Also, in the experiment with Oesophagostumum dentatum [2], the minimal effective concentration was not above 50 µM.
For the compound `CN(C)c1cc(S(=O)(=O)c2cc(Cl)cc(Cl)c2)ncc1C(=O)N[C@H]1CCCc2ccccc21` [Compound 102, (S)-6-((3,5-dichlorophenyl)sulfonyl)-4-(dimethylamino)-N-(1,2,3,4-tetrahydronaphthalen-1-yl)nicotinamide], the minimal effective concentration with Oesophagostumum dentatum [3] is not above 50 µM. Also, the EC50 was less than 10 µM with Dirofilaria immitis and more than 30 µM in experiment [1].
On to `CN(C)c1cc(Cc2cc(Cl)cc(Cl)c2)ncc1C(=O)N[C@H]1CCCc2ccccc21` [Compound 111], for which the minimal effective concentration in the experiment with Oesophagostumum dentatum [3] and in the experiment on Oesophagostumum dentatum [2] was not above 50 µM in each case. This compound displayed an EC50 in experiment [1] of more than 30 µM.
On to `O=C(Nc1cccc2ccccc12)c1cnc(Oc2cccc(Cl)c2Cl)cc1N1CCOCC1` [Compound 45], for which the figures for the EC50 (with Dirofilaria immitis; in experiment [1]) were less than 10 µM and more than 30 µM, respectively.
In the case of `CSc1cc(Sc2cccc(Cl)c2Cl)ncc1C(=O)N[C@H]1CCCc2ccccc21` [Compound 54], the EC50 was more than 30 µM in experiment [1] and less than 10 µM at C. elegans Slo-1a. Also, the minimal effective concentration in the experiment on Ascaridia galli was not above 50 µM.
As to `COc1cc(Sc2cc(Cl)cc(Cl)c2)ncc1C(=O)N[C@H]1CCOc2ccccc21` [Compound 83], the EC50 in experiment [1] is more than 30 µM; at C. elegans Slo-1a, less than 10 µM. Besides, the minimal effective concentration in the experiment with Ascaridia galli and in the experiment with Oesophagostumum dentatum [2] was not above 50 µM in each case.
For the compound `CSc1cc(Oc2cc(Cl)cc(Cl)c2)ncc1C(=O)N[C@@H]1CCOc2ccccc21` [Compound 60], the 50% effective concentration (EC50) in experiment [1] was more than 30 µM. For the same compound, the minimal effective concentration in the experiment on Oesophagostumum dentatum [2] is not above 50 µM.
On to `CSc1cc(Sc2cccc(Cl)c2Cl)ncc1C(=O)N[C@H]1CCc2ccccc21` [Compound 53], for which the minimal effective concentration in the experiment on Oesophagostumum dentatum [3] was not above 50 µM. Further, the EC50 in experiment [1] was more than 30 µM; at C. elegans Slo-1a it was less than 10 µM.
`CN(C)c1cc(Nc2cc(Cl)cc(Cl)c2)ncc1C(=O)N[C@H]1CCc2ccccc21` [Compound 116]: the minimal effective concentration in the experiment with Oesophagostumum dentatum [3], in the experiment on Ascaridia galli and in the experiment with Oesophagostumum dentatum [2] was not above 50 µM throughout. Further, the figures for the EC50 (in experiment [1]; on C. elegans Slo-1a) were more than 30 µM and less than 10 µM, respectively.
`O=C(N[C@H]1CCOc2ccccc21)c1cnc(Cc2cc(Cl)cc(Cl)c2)cc1N1CCOCC1` [Compound 112]: the figures for the EC50 (in experiment [1]; on C. elegans Slo-1a) were more than 30 µM and less than 10 µM, respectively. Moreover, the minimal effective concentration in the experiment with Ascaridia galli and in the experiment on Oesophagostumum dentatum [2] was not above 50 µM in each case.
Regarding `O=C(N[C@H]1CCc2ccccc21)c1cnc(Nc2cc(Cl)cc(Cl)c2)cc1N1CCOCC1` [Compound 109], the EC50 is 10 to 30 µM in experiment [1] and less than 10 µM on C. elegans Slo-1a. The minimal effective concentration with Ascaridia galli and in the experiment with Oesophagostumum dentatum [2] was not above 50 µM throughout.
With `CN(C)c1cc(Sc2cccc(Cl)c2Cl)ncc1C(=O)N[C@H]1CCCc2ccccc21` [Compound 19], the EC50 is more than 30 µM in experiment [1] and less than 1 µM at C. elegans Slo-1a. The minimal effective concentration in the experiment with Ascaridia galli was not above 50 µM.
`CN(C)c1cc(Cc2cc(Cl)cc(Cl)c2)ncc1C(=O)N[C@H]1CCc2ccccc21` [Compound 110]: the minimal effective concentration in the experiment on Oesophagostumum dentatum [3] and in the experiment with Oesophagostumum dentatum [2] was not above 50 µM throughout. This compound also had an EC50 in experiment [1] of more than 30 µM.
As to `CSc1cc(Oc2cccc(Cl)c2Cl)ncc1C(=O)N[C@H]1CCc2ccccc21` [Compound 58], the 50% effective concentration (EC50) in experiment [1] is more than 30 µM; at C. elegans Slo-1a, less than 10 µM. Also, in the experiment with Ascaridia galli, the minimal effective concentration is not above 50 µM.
For `O=C(N[C@@H]1CCOc2ccccc21)c1cnc(Sc2cccc(Cl)c2Cl)cc1N1CCOCC1` [Compound 50], the values for the concentration giving a half-maximal response (EC50) (in the experiment on Dirofilaria immitis; in experiment [1]) were less than 10 µM and more than 30 µM, respectively.
For `O=C(N[C@H]1CCCc2ccccc21)c1cnc(Nc2cc(Cl)cc(Cl)c2)cc1N1CCOCC1` [Compound 106], the EC50 in experiment [1] is more than 30 µM; at C. elegans Slo-1a, less than 10 µM. Also, in the experiment with Ascaridia galli, the minimal effective concentration was not above 50 µM.
In the case of `CCSc1cc(Sc2cc(Cl)cc(Cl)c2)ncc1C(=O)N[C@H]1CCOc2ccccc21` [Compound 74], the minimal effective concentration in the experiment on Oesophagostumum dentatum [3] and in the experiment on Oesophagostumum dentatum [2] was not above 50 µM throughout. In experiment [1], the EC50 was more than 30 µM.
Regarding `CN(C)c1cc(Nc2cc(Cl)cc(Cl)c2)ncc1C(=O)N[C@H]1CCCc2ccccc21` [Compound 108], the EC50 was more than 30 µM in experiment [1] and less than 10 µM at C. elegans Slo-1a. The minimal effective concentration with Ascaridia galli was not above 50 µM.
As for `CN(C)c1cc(Oc2cc(Cl)cc(Cl)c2)ncc1C(=O)Nc1cccc2ccccc12` [Compound 32], the results for the EC50 (in the experiment with Dirofilaria immitis; in experiment [1]) were less than 10 µM and more than 30 µM, respectively. Moreover, the minimal effective concentration in the experiment with Oesophagostumum dentatum [2] is not above 50 µM.
